From publication PMC7211193, “Evaluation of absorption, distribution, metabolism, and excretion of [^14C]-rucaparib, a poly(ADP-ribose) polymerase inhibitor, in patients with advanced solid tumors” (Investigational New Drugs, 2019)

Assays:
[1] = Mass balance: recovery of radioactivity in urine and feces; assay type: in vivo, human
Experimental: Six patients received a single oral dose of [^14C]-rucaparib 600 mg (approximately 5.18 MBq or 140 μCi) on day 1 after fasting for 10 h and were confined at the study site for the collection of blood samples and excreta for a maximum of 12 days.
For the purposes of the mass balance study and metabolite profiling, urine and fecal samples were collected during predetermined intervals. Urine was collected at time 0 (predose), 0–6, 6–12, and 12–24 h, and daily per 24-h interval from day 2 to day 12. Urine was collected in 3-L polyethylene containers and stored at 4 °C for the duration of the collection period. After each collection period, urine samples were mixed thoroughly, weighed, portioned into aliquots in polypropylene tubes, and then frozen at or below −70 °C until metabolite profiling and TRA analyses by LSC. Feces were collected daily in 24-h intervals from predose to day 12. Feces collections were kept at or below −20 °C. Sample pretreatment involved diluting and homogenizing the feces by adding water (1–2 weight equivalents). An Ultra-Turrax mixer (IKA, Staufen im Breisgau, Germany) was used to homogenize the samples before aliquoting. Separate aliquots of fecal homogenate were transferred to polypropylene tubes. Aliquots for radioactivity measurement by LSC were stored at or below −20 °C until analysis, whereas aliquots for metabolite profiling were stored at −70 °C until analysis.
Patients 01, 05, and 09 were confined to the study site for sample collections for 12 days, but Patients 03, 06, and 08 were discharged earlier per protocol because cumulative recovery of radioactivity from these patients exceeded 90% of the administered dose or the radioactivity in urine and feces was <1% of the administered dose over a 24-h period on 2 consecutive days.
TRA analysis was performed on a Liquid Scintillation Counter Tri-Carb Model 3100TR (PerkinElmer). Aliquots of blood (300 μL), plasma (250 μL), and urine (1 mL) were transferred to scintillation vials. Blood samples were incubated at ≥60 °C with SOLVABLE (1 mL). After cooling to room temperature, EDTA (0.1 M, 100 μL) and hydrogen peroxide (225 μL) were added to dissolve blood cells, reduce foaming, and decrease color intensity. Finally, after incubation at ≥45 °C and ≥60 °C, Ultima Gold (≥5-fold) was added, and the samples were analyzed with LSC. For urine samples, Ultima Gold (≥5-fold) was added, and the samples were analyzed with LSC.
Fecal samples were processed further and combusted before LSC analyses. Aliquots (≈500 mg) of the fecal homogenates were dried in an oven (50 °C). Combustaid (100 μL) was added to the dry homogenates and the sample was combusted in a Sample Oxidizer Model 307 (PerkinElmer). Carbo-Sorb E (7 mL) was used as an absorber agent for the [^14C]-carbon dioxide that was generated during combustion. At the end of the combustion cycle, the absorber was mixed with 13 mL of the scintillant PermaFluor E. After combustion, TRA of fecal aliquots was determined by LSC as described for urine samples.
For the vomit sample collected from Patient 01 (clear vomitus) the urine method was used, and for Patient 05 (not clear vomitus) the feces method was used.

[2] = Safety assessment (CTCAE v4.03 adverse events); assay type: in vivo, human
Experimental: The safety of rucaparib was evaluated during the study. The National Cancer Institute Common Terminology Criteria for Adverse Events (CTCAE) grading system (version 4.03) was used to describe the severity of the adverse events (AEs) that occurred. Clinical laboratory, vital sign, 12-lead ECG, and physical examinations were also part of the safety assessment.

[3] = cited from earlier work
[4] = within 12 days post dose, mean ± SD, N = 6
[5] = single oral 600 mg, versus fasted

With `CNCc1ccc(-c2[nH]c3cc(F)cc4c3c2CCNC4=O)cc1` [Rucaparib, rucaparib] the “Cumulative recovery of the actual dose, Patient 01” value ([1]; Patient 01, dose corrected for loss by vomiting) was 86.5%, the “Dose recovery in feces, patient who lost 0.03% of dose by vomiting” value ([1]; Patient 05) was 62.2% and the “Dose recovery in urine, patient who lost 0.03% of dose by vomiting” value ([1]; Patient 05) was 10.9%. The “Cumulative dose recovery, patient who lost 0.03% of dose by vomiting (lowest recovery)” value ([1]; Patient 05, urine plus feces) was 73.1%, the bioavailability ([1]; human, urine and feces, po, 600 mg, radioactivity in urine plus radioactivity recovered as metabolites in feces, read-out: Oral bioavailability suggested by the current study) was at least 21% and the “Time by which 90% of the observed urinary recovery was achieved” value ([1]; post dose) was at most 120 h. The “Time within which 90% of the observed fecal recovery was found” value ([1]; post dose) was at most 168 h, the “Recovery of administered radioactive dose in feces” value [1, 4] was 71.9% and the “Recovery of administered radioactive dose in urine” value [1, 4] was 17.4%. The “Total recovery of administered radioactive dose in excreta” value [1, 4] was 89.3%, the “Total treatment-emergent AEs (TEAEs)” value ([2]; events, in four of six patients, single oral 600 mg) was “five” and the “Relation, severity and seriousness of TEAEs” value ([2]; investigator assessment) was “No TEAE was considered to be related to the study drug by the investigators, had a severity of more than CTCAE grade 2, led to a withdrawal of the patient, or was a serious AE”. For the same compound, the “Patients with TEAE vomiting” value ([2]; two events in two of six patients) was 33.3%, the “Accumulation at steady state” value ([3]; 600 mg BID) was “approximately four-fold” and the “Time of dosing to achieve steady state” value ([3]; 600 mg BID) was 1 week. For the same compound, the “Dose proportionality of plasma exposure” value ([3]; 40–500 mg QD and 240–840 mg BID) was “dose proportional”, the “Median tmax, QD dosing” value ([3]; 40–500 mg once daily, Study 10) was 1.5 to 6.0 h and the “Median tmax, BID dosing” value ([3]; 240–840 mg twice daily, Study 10) was 1.5 to 4.0 h. For the same compound, the “Apparent steady-state clearance, BID dosing” value ([3]; Study 10) was 26.2 to 58.6 L/h, the “Apparent steady-state clearance, QD dosing” value ([3]; Study 10) was 26.7 to 47.5 L/h and the “Increase of AUC by a high-fat meal” value [3, 5] was 38%. For the same compound, the “Increase of Cmax by a high-fat meal” value [3, 5] was 20% and the “t1/2 in a previous clinical trial” value ([3]; single oral dose, dose range 40–500 mg) was 11 to 29.8 h.
